Results as given in EP4818168A1, “FUSED RING COMPOUND, PHARMACEUTICAL COMPOSITION THEREOF AND USE THEREOF” (priority 2023, dated 2025).
Like-named read-outs stand apart in the source and are kept apart here.

Molecular target: T1, AURKA (Homo sapiens, UniProt O14965)
T1 construct: endogenous in cells; host or cells: Jurkat cells
T1 sequence (O14965 1-403): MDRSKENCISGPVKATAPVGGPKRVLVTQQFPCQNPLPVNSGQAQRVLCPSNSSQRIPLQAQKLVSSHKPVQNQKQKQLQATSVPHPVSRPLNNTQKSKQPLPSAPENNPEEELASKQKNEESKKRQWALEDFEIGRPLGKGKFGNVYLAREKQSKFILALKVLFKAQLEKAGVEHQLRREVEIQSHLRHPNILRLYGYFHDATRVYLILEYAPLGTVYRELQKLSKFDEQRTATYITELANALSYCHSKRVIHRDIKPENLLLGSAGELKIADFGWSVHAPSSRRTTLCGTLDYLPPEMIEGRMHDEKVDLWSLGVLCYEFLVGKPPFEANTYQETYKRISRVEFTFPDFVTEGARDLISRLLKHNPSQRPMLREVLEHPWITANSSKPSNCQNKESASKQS
Assay type: cell-based
Details: Jurkat cells, 24 h
From the text: WB is a classical biochemical experimental method used to detect the abundance of a target protein in a sample of cells or biological tissue. It relies on specific antigen-antibody binding to detect protein signals from the sample processed by gel electrophoresis: the protein specifically binds to a primary antibody at an epitope; the primary antibody is then conjugated with a secondary antibody to amplify the signal cascade; the signal is read out by chemiluminescent or fluorescent detection. The intracellular protein content is ultimately characterized by the intensity of the optical signals. […] The DC50 value can be calculated by curve fitting of the protein WB exposure signals.
The experimental procedure is as follows: • 1. Seed Jurkat cells into a 12-well plate at 1×10^6 cells/500 µL/well. • 2. Mix the culture medium with the compound to a concentration that is twice the desired final concentration. […] Transfer the cell suspension to a centrifuge tube. Rinse the 12-well plate with PBS and then transfer the PBS from the plate to the same centrifuge tube. Centrifuge at 3000 rpm for 5 min at room temperature. Aspirate the supernatant using a vacuum pump. […] Lyse on ice for 20 min. • 4. Centrifuge the lysed sample at 13000 rpm for 20 min at 4°C. Mix the supernatant with 5× protein loading buffer. Boil at 100°C for 5 min and then cool. Store the denatured protein sample at -20°C. • 5. […] Run electrophoresis at 80 V for 20 min, and then at 120 V constant voltage for 60 min. • 6. Transfer the protein onto a nitrocellulose membrane in an ice bath at 250 mA constant current for 90 min. • 7. […] Incubate with a primary antibody overnight at 4°C. • 9. […] Incubate with a secondary antibody for 1-2 h at room temperature. • 10. […] Expose and image the membrane using a LICOR Odyssey DLx imager.

Compound	Percentage of AURKA Degradation Induced by 100 nM Compound in Jurkat Cells (Table 1)	Percentage of AURKA Degradation Induced by 1 µM Compound in Jurkat Cells (Table 1)	Percentage of AURKA Degradation Induced by 100 nM Compound in Jurkat Cells (Table 2)	Percentage of AURKA Degradation Induced by 1 µM Compound in Jurkat Cells (Table 2)
COc1cc(Nc2ncc3c(n2)-c2ccc(Cl)cc2C(c2c(F)cccc2OC)=NC3)ccc1C(=O)N[C@H]1C[C@@H](C#Cc2cccc3c2CN(C2CCC(=O)NC2=O)C3=O)C1 (relative stereo) [Compound A6]	++ (30% < Degradation ≤ 70%)	+ (Degradation ≤ 30%)	–	–
COc1cc(Nc2ncc3c(n2)-c2ccc(Cl)cc2C(c2c(F)cccc2OC)=NC3)ccc1C(=O)NCCOCCNc1cccn2c(N3CCC(=O)NC3=O)cnc12 [Compound A20]	++ (30% < Degradation ≤ 70%)	++ (30% < Degradation ≤ 70%)	–	–
COc1cc(Nc2ncc3c(n2)-c2ccc(Cl)cc2C(c2c(F)cccc2OC)=NC3)ccc1C(=O)NCCN1CCN(c2ccc(-n3ccc(=O)[nH]c3=O)cn2)CC1 [Compound A31]	++ (30% < Degradation ≤ 70%)	++ (30% < Degradation ≤ 70%)	–	–
O=C1CCN(c2ccc(C#C[C@H]3C[C@H](NC(=O)c4ccc(Nc5ncc6c(n5)-c5ccc(Cl)cc5C(c5c(F)cccc5F)=NC6)cc4)C3)cc2)C(=O)N1 [Compound A53]	++ (30% < Degradation ≤ 70%)	++ (30% < Degradation ≤ 70%)	–	–
O=C1CCN(c2ccc(N3CC4(CC(NC(=O)c5ccc(Nc6ncc7c(n6)-c6ccc(Cl)cc6C(c6c(F)cccc6F)=NC7)cc5)C4)C3)nc2)C(=O)N1 [Compound A60]	+++ (Degradation > 70%)	+++ (Degradation > 70%)	–	–
O=C1CCN(c2cccc(N3CC4(CC(NC(=O)c5ccc(Nc6ncc7c(n6)-c6ccc(Cl)cc6C(c6c(F)cccc6F)=NC7)cc5)C4)C3)c2)C(=O)N1 [Compound A62]	++ (30% < Degradation ≤ 70%)	++ (30% < Degradation ≤ 70%)	–	–
CN1C(=O)CCN(c2ccc(N3CCC4(CC3)CC(NC(=O)c3ccc(Nc5ncc6c(n5)-c5ccc(Cl)cc5C(c5c(F)cccc5F)=NC6)cc3)C4)nc2)C1=O [Compound A82]	–	–	+ (Degradation ≤ 30%)	+ (Degradation ≤ 30%)
O=C1CCN(c2ccc(N3CC(N4CC(NC(=O)c5ccc(Nc6ncc7c(n6)-c6ccc(Cl)cc6C(c6c(F)cccc6F)=NC7)cc5)C4)C3)nc2)C(=O)N1 [Compound A84]	–	–	++ (30% < Degradation ≤ 70%)	+++ (Degradation > 70%)
O=C1CCN(C23CCC(N4CCN(CCNC(=O)c5ccc(Nc6ncc7c(n6)-c6ccc(Cl)cc6C(c6c(F)cccc6F)=NC7)cc5)CC4)(CC2)CC3)C(=O)N1 [Compound A91]	–	–	+ (Degradation ≤ 30%)	+ (Degradation ≤ 30%)
O=C1CCN(C23CC(N4CCN(CCNC(=O)c5ccc(Nc6ncc7c(n6)-c6ccc(Cl)cc6C(c6c(F)cccc6F)=NC7)cc5)CC4)(C2)C3)C(=O)N1 [Compound A92]	–	–	+ (Degradation ≤ 30%)	+ (Degradation ≤ 30%)
O=C1CCN(c2ccc(N3CCC4(CC3)CC(NC(=O)c3ccc(Nc5ncc6c(n5)-c5ccc(Cl)cc5C(c5c(F)cccc5F)=NC6)cc3)C4)c(F)c2)C(=O)N1 [Compound A93]	–	–	++ (30% < Degradation ≤ 70%)	+++ (Degradation > 70%)
O=C1CCN(c2ccc(N3CCN(CCNc4ccc(Nc5ncc6c(n5)-c5ccc(Cl)cc5C(c5c(F)cccc5F)=NC6)cc4)CC3)cc2)C(=O)N1 [Compound A108]	–	–	+ (Degradation ≤ 30%)	+ (Degradation ≤ 30%)
O=C1CCN(c2ccc(N3CCN(CCn4ccnc4-c4ccc(Nc5ncc6c(n5)-c5ccc(Cl)cc5C(c5c(F)cccc5F)=NC6)cc4)CC3)cc2)C(=O)N1 [Compound A111]	–	–	+ (Degradation ≤ 30%)	+ (Degradation ≤ 30%)
O=C1CCN(c2ccc([C@H]3C[C@H](N4CC(NC(=O)c5ccc(Nc6ncc7c(n6)-c6ccc(Cl)cc6C(c6c(F)cccc6F)=NC7)cc5)C4)C3)nc2)C(=O)N1 [Compound A113]	–	–	+++ (Degradation > 70%)	++ (30% < Degradation ≤ 70%)
O=C1CCN(c2ccc([C@H]3C[C@@H](N4CC(NC(=O)c5ccc(Nc6ncc7c(n6)-c6ccc(Cl)cc6C(c6c(F)cccc6F)=NC7)cc5)C4)C3)nc2)C(=O)N1 [Compound A114]	–	–	+++ (Degradation > 70%)	+++ (Degradation > 70%)
Cc1ccc(N2CCN(CCC#Cc3cccc(Nc4ncc5c(n4)-c4ccc(Cl)cc4C(c4c(F)cccc4F)=NC5)c3)CC2)cc1N1CCC(=O)NC1=O [Compound A117]	–	–	++ (30% < Degradation ≤ 70%)	++ (30% < Degradation ≤ 70%)
O=C1CCN(c2ccc(N3CCC4(CC3)CC(NC(=O)c3ccc(Nc5ncc6c(n5)-c5ccc(Cl)cc5C(c5ccccc5Cl)=NC6)cc3)C4)nc2)C(=O)N1 [Compound A119]	–	–	+++ (Degradation > 70%)	+++ (Degradation > 70%)
O=C1CCN(c2cccc(N3CCN(CC#Cc4ccc(Nc5ncc6c(n5)-c5ccc(Cl)cc5C(c5c(F)cccc5F)=NC6)cc4)CC3)c2)C(=O)N1 [Compound A123]	–	–	+ (Degradation ≤ 30%)	+ (Degradation ≤ 30%)
O=C1CCN(c2ccc(C#CCN3CCn4c(cnc4-c4ccc(Nc5ncc6c(n5)-c5ccc(Cl)cc5C(c5c(F)cccc5F)=NC6)cc4)C3)cc2)C(=O)N1 [Compound A139]	–	–	+++ (Degradation > 70%)	+++ (Degradation > 70%)
O=C1CCN(c2cnc(N3CCC(N4CCN(c5ccc(Nc6ncc7c(n6)-c6ccc(Cl)cc6C(c6c(F)cccc6F)=NC7)cc5)C(=O)C4)CC3)s2)C(=O)N1 [Compound A154]	–	–	+++ (Degradation > 70%)	++ (30% < Degradation ≤ 70%)
O=C1CCN(c2ccc(N3CCC(Cn4cnc(-c5ccc(Nc6ncc7c(n6)-c6ccc(Cl)cc6C(c6c(F)cccc6F)=NC7)cc5)c4)CC3)nc2)C(=O)N1 [Compound A159]	–	–	+++ (Degradation > 70%)	+++ (Degradation > 70%)
O=C1CCN(c2ccc(N3CC(Cn4cnc(-c5ccc(Nc6ncc7c(n6)-c6ccc(Cl)cc6C(c6c(F)cccc6F)=NC7)cc5)c4)C3)nc2)C(=O)N1 [Compound A160]	–	–	++ (30% < Degradation ≤ 70%)	++ (30% < Degradation ≤ 70%)
Cc1c(N2CCC(C#Cc3cccc(Nc4ncc5c(n4)-c4ccc(Cl)cc4C(c4c(F)cccc4F)=NC5)c3)CC2)cccc1N1CCC(=O)NC1=O [Compound A161]	–	–	+ (Degradation ≤ 30%)	++ (30% < Degradation ≤ 70%)
Cc1c(N2CCN(CCc3cccc(Nc4ncc5c(n4)-c4ccc(Cl)cc4C(c4c(F)cccc4F)=NC5)c3)CC2)cncc1N1CCC(=O)NC1=O [Compound A162]	–	–	++ (30% < Degradation ≤ 70%)	++ (30% < Degradation ≤ 70%)
Cc1c(N2CCC3(CC2)CN(Cc2cccc(Nc4ncc5c(n4)-c4ccc(Cl)cc4C(c4c(F)cccc4F)=NC5)c2)C3)cccc1N1CCC(=O)NC1=O [Compound A163]	–	–	++ (30% < Degradation ≤ 70%)	+ (Degradation ≤ 30%)
